The source of these data is US20260216354A1, “ANTI-CMET ANTIBODY, ANTIBODY-DRUG CONJUGATE, AND PREPARATION METHOD THEREFOR AND USE THEREOF” (MEDILINK THERAPEUTICS (SUZHOU) CO., LTD., priority 2022, published 2026).

For test [1], the system named is SW480 cells. Kind of test: In-vitro killing activity Test 1 (CCK8), SW480. The settings on record: 7 days, read-out: EC50 of ADC killing (nM) SW480. The class given is cell-based, human. The source says: (§1) Tumor cells in a good growth status are collected by digestion and centrifugation, SW480 (purchased from ATCC, Cat. No. CCL-228), NCI-H358 (purchased from ATCC, Cat. No. CRL-5807), LS1034 cells (Nanjing Cobioer Biosciences Co., Ltd., Cat. No. CBP60013), NCI-H716 (purchased from ATCC, Cat. No. CCL-251) cells are directly collected by centrifugation, the foregoing cells are all resuspended with RPMI 1640+5% FBS+Ps, and are counted, and 5000 (LS1034 and NCI-H716) or 3000 (SW480 and NCI-H358) cells are plated in each well in a volume of 100 uL; ADCs to be tested are diluted separately with resuspension media corresponding to the foregoing 3 types of cells, starting at 300 µg/mL ([…]) for 3-fold dilution with 11 concentration points, and added into a plate with 100 µL/well, to make the ADCs have a final concentration of 150 µg/mL, for incubation at 37° C. for 5 days (LS1034 and NCI-H358) or 7 days (NCI-H716 and SW480); after the incubation is completed, CCK8 is added with 20 µL/well, for a reaction for 1-3 hours; and values are read out at 450 nm by a microplate reader and imported into Graphpad Prism for curve-fitting.

In test [2] the test system is human colon cancer SW480 cell lines. As to the kind of experiment: In-vivo efficacy in SW480 CDX models. On the set-up: species or system mouse. The settings on record: 5 mg/kg, i.v., QW*2, SW480 CDX. The source says:
(§2) To verify the in-vivo efficacy of the anti-human cMet ADC drugs and evaluate the anti-tumor effects of the tested drugs in female Balb/c Nude mouse models subjected to subcutaneous xenografts, 5-6 week old female Balb/c Nude mice (Vital River) are purchased, human non-small cell lung cancer NCI-H358 cells that have grown to the logarithmic growth phase are digested with EDTA and then resuspended with PBS, each mouse is subcutaneously inoculated with 5*10^6 cells, and when the tumor grows to a size of […], intravenous administration is performed once a week with 1 mg/kg or 3 mg/kg each time.
A similar method is used to evaluate the anti-tumor effects of anti-cMet ADC test drugs in female BALB/c nude mouse animal models subjected to subcutaneous xenografts of human colon cancer SW480 cell lines.

Test [3] relates to NCI-H716 cells. Kind of test: In-vitro killing activity Test 1 (CCK8), NCI-H716. The class given is cell-based, human. Particulars: 7 days, read-out: EC50 of ADC killing (nM) NCI-H716.
From the text: as §1

In test [4] the test system is human colorectal adenocarcinoma NCI-H716 cell lines. As to the kind of experiment: In-vivo efficacy in NCI-H716 CDX models. The arrangement: species or system mouse. The settings on record: i.v., QW*3, NCI-H716 CDX.
From the text: as §2
A similar method is used to evaluate the anti-tumor effects of cMet ADC test drugs in female BALB/c nude mouse animal models subjected to subcutaneous xenografts of human colorectal adenocarcinoma NCI-H716 cell lines.

For test [5], the system named is NCI-H716 cells. Kind of test: Flow cell affinity of ADCs, NCI-H716. Particulars: flow cytometry. Type of test: binding, human. (In general: In flow cytometry, cells or beads pass a laser one at a time.)
In test [6] the test system is LS1034 cells. Kind of test: In-vitro killing activity Test 1 (CCK8), LS1034. Particulars: 5 days, read-out: EC50 of ADC killing (nM) LS1034. Type of test: cell-based, human.
From the text: as §1

Test [7] deals with NCI-H358 cells. Kind of test: Flow cell affinity of ADCs, NCI-H358. The class given is binding, human. Particulars: flow cytometry.
The target in test [8] is T1, h.cMet-ECD-His (Homo sapiens, UniProt P08581).
T1 construct: a human cMet ectodomain recombinant protein (Human HGF R/c-MET Protein, His Tag); purchased Acrobiosystems Co., Ltd. / ACRO Biosystems MET-H5227
Kind of test: ELISA protein affinity of cMET antibodies before and after conjugating into ADCs. The class given is binding. The method, then:
Proteins anti-His-Rabbit Fc are coated with the CBS to […], and are blocked with 2% BSA (in PBS) at 37° C. for 2 hours, h.cMet-ECD-His of […] is added for incubation at 37° C. for 2 hours, after 2 hours, antibodies to be tested or ADCs that are gradiently diluted (starting at […] for 3-fold dilution with 11 concentration points) are added for incubation at 37° C. for 2 hours, after 2 hours, HRP-labeled anti-human specific secondary antibodies (Jackson, 115-035-164) are added for incubation at 37° C. for 1 hour, a TMB substrate is added for color development, and after the color development is stopped using HCl of 2M, final products are added into a machine to read out absorbance values at […].

The test system of test [9] is human non-small cell lung cancer NCI-H358 cells. As to the kind of experiment: In-vivo efficacy in NCI-H358 CDX models (Test 1). On the set-up: species or system mouse. The settings on record: 1 mg/kg, i.v., QW*3, NCI-H358 CDX.
From the text: as §2

The test system of test [10] is LS1034 cells. Kind of test: Flow cell affinity of ADCs, LS1034. The class given is binding, human. Particulars: flow cytometry.
Test [11] has as its system NCI-H69 cells. As to the kind of experiment: Flow cell affinity of ADCs, NCI-H69. Type of test: binding, human. The settings on record: flow cytometry.
Test [12] relates to NCI-H358 cells. Kind of test: In-vitro killing activity Test 1 (CCK8), NCI-H358. Type of test: cell-based, human. The settings on record: 5 days, read-out: EC50 of ADC killing (nM) NCI-H358.
From the text: as §1

Test [13] has as its system cynoMet (cyno.cMet-ECD-His). As to the kind of experiment: ELISA affinity of humanized antibodies to cyno Met. Type of test: binding. The settings on record: cyno.cMet-ECD-His captured.
From the text: […]
In general terms: In an ELISA, binding on a coated surface is turned into a signal by an enzyme label.

The target of test [14] is T2, h.cMet (cMet-ECD-his) (Homo sapiens, UniProt P08581).
T2 construct: a human cMet ectodomain recombinant protein (Human HGF R/c-MET Protein, His Tag); purchased Acrobiosystems Co., Ltd. / ACRO Biosystems MET-H5227
As to the kind of experiment: ELISA affinity of humanized antibodies to human cMet. The class given is binding. The settings on record: cMet-ECD-his coated.
From the text: […]

Test [15] has as its target T3, (Homo sapiens, UniProt P08581).
T3 construct: MKN45 cells expressing c-MET antigens; endogenous in cells; host or cells: MKN45
Kind of test: FACS competition of humanized antibodies with HGF ligand on MKN45 cells. The class given is binding. Particulars: HGF-His-biotin 50 ng/ml.
Description: (§3) Therefore, competitive actions of the humanized antibodies on ligand binding and actions of inhibiting HGF-induced ERK phosphorylation are detected.
(§4) MKN45 cells are collected by trypsin digestion and centrifugation, and are washed three times with a pre-cooled PBS, the cells are resuspended with 1% BSA (in PBS), and are plated into a 96-well conical bottom plate with 2^10^5 cells (50 ul) per well, anti-cMet humanized antibodies are gradiently diluted with 1% BSA, starting at 15 μg/ml to a final concentration from 5 μg/ml with a 3-fold dilution gradient and 8 dilution points, 50 ul diluted antibodies are mixed well with the cells in the conical bottom plate, HGF-His-biotin (from Chengdu NB Biolab Co., Ltd.) is diluted with 1% BSA to 150 ng/ml, and is added into the well plate with 50 ul/well, to make a final concentration of ligands of 50 ng/ml, for incubation at 4° C. for 1 hour after fully mixing, after three times of washing with the pre-cooled PBS, 100 ul of 1% BSA (containing 1 uL anti-biotin PE fluorescent secondary antibodies, BioLegend, Cat. No. 405204) is added to each well for incubation at 4° C. for 0.5 hours, and after three times of washing with the pre-cooled PBS, the cells are resuspended and detected by a flow cytometer (Beckman, cytoflex).

The target in test [16] is T4, HGF ligand on MKN45 cells (Homo sapiens, UniProt P08581).
T4 construct: MKN45 cells expressing c-MET antigens; endogenous in cells; host or cells: MKN45
The description is as above. The class given is binding. Particulars: HGF-His-biotin 50 ng/ml, MKN45.
Description: as §3, §4

In test [17] the target is T1, h.cMet-ECD-His. As to the kind of experiment: ForteBio dynamic affinity to h.cMet-ECD-His. The class given is binding. The settings on record: ProA sensor. The protocol: Dynamic affinities of the humanized antibodies are assayed through ForteBio. Experimental steps are as follows: 1. sensor preparation: taking out a ProA sensor, and pre-wetting the sensor with a PBST diluent (pH 7.4) for 10 min; 2. sample dilution: separately diluting antibodies that need to be solidified to 5 μg/ml, antigens h.cMet-ECD-His (Acrobiosystems Co., Ltd., Cat. No.: MET-H5227) starting at 500 nM for 2-fold dilution with 5 concentration points and a 0 concentration point set; 3. setting a program, putting a sensor plate and a sample plate away, starting the program, and the sensor being regenerated with a glycine solution of 20 mM (pH 1.7); 4. using Octet analysis software to analyse data.
Background: Biolayer interferometry detects binding as a change in optical thickness at a sensor tip.

Test [18] relates to MKN45 cells. Kind of test: Endocytic activity on MKN45 cells. Type of test: cell-based, human. Particulars: 10 μg/mL, 37° C. The protocol:
MKN45 cells are collected by trypsin digestion and centrifugation, incubated with humanized antibodies to be detected of a concentration of 10 μg/mL at 4° C. for 1 hour, and washed 3 times with the PBS, the cells are resuspended with DMEM+10% FBS that has been pre-warmed at 37° C., […], after 3 times of washing with a pre-cooled PBS, 1.2 uL of anti-human APC fluorescent secondary antibodies are added for incubation at 4° C. for 0.5 hours, and after three times of washing with the PBS, the cells are resuspended and added into a machine. Endocytosis rates are calculated according to the following formula: endocytosis rate (%)= ? 1−(an average fluorescence value of a test sample at this time point−an average fluorescence value of a negative control sample at this time point)/(an average fluorescence value of the test sample at 0 hour−an average fluorescence value of the negative control sample at 0 hour) ? * 100.

For test [19], the system named is MKN45 cells. As to the kind of experiment: Flow affinity of humanized antibodies to MKN45 cells. The class given is binding, human. Particulars: flow cytometry. The protocol:
MKN45 cells (Nanjing Cobioer Biosciences Co., Ltd., CBP60488) are collected by trypsin digestion and centrifugation, and are washed three times with a pre-cooled PBS, the cells are resuspended with 1% BSA (in the PBS), and are plated into a 96-well conical bottom plate with 2^10^5 cells (50 ul) per well, anti-cMet humanized antibodies to be tested are gradiently diluted with 1% BSA starting at 20 μg/ml with a 4-fold dilution gradient and 8 concentration points, 50 ul diluted antibodies are mixed well with the cells in the conical bottom plate for incubation at 4° C. for 1 hour, after three times of washing with the pre-cooled PBS, 100 ul of 1% BSA (containing 1 uL anti-human APC fluorescent secondary antibodies, BioLegend, Cat. No. 410712) is added to each well for incubation at 4° C. for 0.5 hours, and after three times of washing with the pre-cooled PBS, the cells are resuspended for detection by a flow cytometer (Beckman, cytoflex).

T1 sequence (P08581 25-932 limits assumed): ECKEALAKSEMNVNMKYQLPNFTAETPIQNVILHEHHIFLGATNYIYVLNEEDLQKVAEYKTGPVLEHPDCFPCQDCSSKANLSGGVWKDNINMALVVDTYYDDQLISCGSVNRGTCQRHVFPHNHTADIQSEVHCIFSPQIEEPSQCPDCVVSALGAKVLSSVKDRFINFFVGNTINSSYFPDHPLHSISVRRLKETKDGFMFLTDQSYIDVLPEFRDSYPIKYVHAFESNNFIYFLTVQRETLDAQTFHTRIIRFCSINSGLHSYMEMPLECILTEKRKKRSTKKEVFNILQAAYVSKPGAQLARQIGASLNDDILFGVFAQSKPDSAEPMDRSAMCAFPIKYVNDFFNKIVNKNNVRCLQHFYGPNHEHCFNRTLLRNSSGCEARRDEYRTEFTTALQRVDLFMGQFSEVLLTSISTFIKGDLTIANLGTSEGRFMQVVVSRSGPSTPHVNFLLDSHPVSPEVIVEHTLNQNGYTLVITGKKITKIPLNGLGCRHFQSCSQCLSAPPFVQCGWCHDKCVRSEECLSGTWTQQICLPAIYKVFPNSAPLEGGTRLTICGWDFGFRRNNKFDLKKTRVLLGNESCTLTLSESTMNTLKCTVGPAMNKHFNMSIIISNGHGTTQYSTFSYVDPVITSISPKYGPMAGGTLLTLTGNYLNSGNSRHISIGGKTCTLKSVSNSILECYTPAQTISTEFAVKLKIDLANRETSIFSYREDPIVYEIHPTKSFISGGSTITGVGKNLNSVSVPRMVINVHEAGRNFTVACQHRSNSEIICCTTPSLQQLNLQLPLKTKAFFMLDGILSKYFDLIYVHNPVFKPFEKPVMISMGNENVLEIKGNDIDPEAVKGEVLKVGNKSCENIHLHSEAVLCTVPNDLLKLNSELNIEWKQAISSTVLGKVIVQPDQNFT
T3 sequence (P08581 25-1390): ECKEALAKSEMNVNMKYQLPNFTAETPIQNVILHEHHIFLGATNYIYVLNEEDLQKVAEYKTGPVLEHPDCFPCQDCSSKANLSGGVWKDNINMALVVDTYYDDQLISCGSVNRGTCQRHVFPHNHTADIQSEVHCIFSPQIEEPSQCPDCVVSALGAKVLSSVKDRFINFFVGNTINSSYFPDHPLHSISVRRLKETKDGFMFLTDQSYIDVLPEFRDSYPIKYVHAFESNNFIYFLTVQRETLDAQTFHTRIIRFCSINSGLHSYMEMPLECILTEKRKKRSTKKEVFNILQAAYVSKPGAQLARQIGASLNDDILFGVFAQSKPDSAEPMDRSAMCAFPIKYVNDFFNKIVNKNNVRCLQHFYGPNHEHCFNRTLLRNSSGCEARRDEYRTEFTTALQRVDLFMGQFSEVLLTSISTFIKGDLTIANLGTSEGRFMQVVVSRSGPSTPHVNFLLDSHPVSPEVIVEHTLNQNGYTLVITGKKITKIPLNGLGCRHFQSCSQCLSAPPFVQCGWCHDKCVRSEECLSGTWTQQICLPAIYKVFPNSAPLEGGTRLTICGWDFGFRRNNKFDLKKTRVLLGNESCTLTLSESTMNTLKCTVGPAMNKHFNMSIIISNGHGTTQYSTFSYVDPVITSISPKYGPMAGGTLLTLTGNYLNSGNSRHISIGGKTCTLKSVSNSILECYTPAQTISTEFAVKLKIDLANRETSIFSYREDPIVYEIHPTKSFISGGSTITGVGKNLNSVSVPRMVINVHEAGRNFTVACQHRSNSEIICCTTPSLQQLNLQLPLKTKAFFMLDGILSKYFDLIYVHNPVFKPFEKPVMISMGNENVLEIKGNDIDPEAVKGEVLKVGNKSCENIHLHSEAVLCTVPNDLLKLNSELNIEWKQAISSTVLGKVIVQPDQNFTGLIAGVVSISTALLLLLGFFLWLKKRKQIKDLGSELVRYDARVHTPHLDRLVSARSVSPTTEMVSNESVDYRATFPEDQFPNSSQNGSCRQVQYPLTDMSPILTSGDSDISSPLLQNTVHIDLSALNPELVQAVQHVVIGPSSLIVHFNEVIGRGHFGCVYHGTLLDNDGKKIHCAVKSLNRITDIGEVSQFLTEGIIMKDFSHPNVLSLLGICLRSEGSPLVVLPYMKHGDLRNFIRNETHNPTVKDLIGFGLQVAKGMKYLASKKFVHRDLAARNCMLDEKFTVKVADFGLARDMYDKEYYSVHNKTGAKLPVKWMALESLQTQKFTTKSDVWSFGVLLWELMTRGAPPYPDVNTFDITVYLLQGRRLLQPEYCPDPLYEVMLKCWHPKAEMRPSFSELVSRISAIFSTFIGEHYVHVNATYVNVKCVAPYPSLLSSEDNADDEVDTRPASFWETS
T4 sequence (P08581 25-1390): as above
T2 sequence (P08581 25-932 limits assumed): as the sequence (P08581 25-932 limits assumed) above

By EC50 is commonly meant the concentration at which the effect is half-maximal. On to “ABT700-Vc-MMAE (DAR4): ADC of control antibody ABT700 conjugated to vc-MMAE (CAS No.: 646502-53-6), DAR value 4.0 [reference compound]”, for which the EC50 was found to be 71.6 nM in [1], 288 nM in [3] and 0.0116 µM in test [5]. Further, in [2], the “TGI (%) on Day 15” value worked out at 15.06%. For the same substance, the “TGI (%) on Day 14” value came to 1.7% in [4] (0.3 mg/kg) and 3.5% in test [4] (1 mg/kg). Besides, the “NCI-H716 Maximum signal value” in [5] is 3737.
For the substance “ABT700-Vc-MMAE (DAR9.7): ADC of control antibody ABT700 conjugated to vc-MMAE (CAS No.: 646502-53-6), DAR value 9.7 [reference compound]”, the EC50 is 53.7 nM in test [6]; 0.000917 µM in [7]; 2.432 mg/L in [8]; 0.000852 µM in [10]; 0.000212 µM in test [11]; more than 10000 nM in test [12]. In addition, the “NCI-H358 Maximum signal value” in test [7] was 32386. In addition, the “TGI (%) on Day 14” value in test [9] came to 84.6%. In addition, the “LS1034 Maximum signal value” in test [10] was 8960. For the same substance, the “NCI-H69 Maximum signal value” in test [11] is reported as 8214.
Take “ABT700: control anti-c-Met antibody with a sequence from KEGG, ID: D11307 [reference compound]”: the concentration giving a half-maximal response (EC50) in [8] worked out at 0.005257 mg/L. Further, the “cynoMet EC50” value in [13] was found to be 0.1434 mg/L. Also, in test [14], the “h.cMet EC50” value amounted to 0.004148 mg/L. Further, the “MKN45 IC50” value in test [15] came out at 0.167 mg/L. Further, the “Maximum inhibition rate %” value in test [16] was 75%. Moreover, the “ka” value in [17] was 169000 M⁻¹ s⁻¹. The “kdis” value in test [17] stood at 3.91e-07 s⁻¹. In addition, the Endocytosis rate % in [18] (1 h) came to 7.9%; in test [18] (2 h) it was 19.2%; in [18] (4 h) it was 44.5%. Besides, in [19], the “MKN45 EC50” value amounted to 0.1004 mg/L. Also, in [19] (MKN45), the Maximum signal value worked out at 70415.
